Measurements reported in article PMC4084896 (PLoS ONE, 2014).

Legend:
[1] = test system: CYP1A1 protein; assay: CYP1A1 protein in primary human hepatocytes (western blot); assay type: cell-based; conditions: cultures HH52, HH54, Hep220770, 48 h
Procedure: Cells were cultured in serum-free medium.
Total protein extracts were prepared from cells on 6-well plates. Cells were washed twice with ice-cold PBS and scraped into 1 ml of PBS. The suspension was centrifuged (4500 RPM/5 min/4°C) and the pellet was resuspended in 150 µl of ice-cold lysis buffer (150 mM NaCl; 10 mM Tris pH 7.2; 0.1% (w/v) SDS; anti-protease cocktail, 1% (v/v) Triton X-100; anti-phosphatase cocktail, 1% (v/v) sodium deoxycholate; 5 mM EDTA). The mixture was vortexed and incubated for 10 min on ice and then centrifuged (15000 RPM/13 min/4°C). Supernatant was collected and the protein content was determined by the Bradford reagent. SDS–PAGE gels (10%) were run on a BioRad apparatus according to the general procedure followed by the protein transfer onto PVDF membrane. The membrane was saturated with 5% non-fat dried milk for 1 h at room temperature. Blots were probed with primary antibodies against CYP1A1 (goat polyclonal, sc-9828, G-18, dilution 1∶500), CYP1A2 (mouse monoclonal, sc-374228, G-4, dilution 1∶2000), actin (goat polyclonal; sc-1616, 1–19, dilution 1∶2000), all purchased from Santa Cruz Biotechnology (Santa Cruz, CA, USA). Chemiluminescent detection was performed using horseradish peroxidase-conjugated secondary antibodies (Santa Cruz Biotechnology) and Western blotting Luminol kit (Santa Cruz Biotechnology).

[2] = test system: CYP1A1 mRNA; assay: in vitro; conditions: human, 24 h
Excerpt: (§1) Primary human hepatocytes used in this study were obtained from two sources: (i) from multiorgan donors LH52 (female; 60 years) and LH54 (person), when: a) Tissue acquisition protocol was in accordance with the requirements issued by “Ethical Committee of the Faculty Hospital Olomouc, Czech Republic” and with Transplantation law #285/2002 Sb., b) “Ethical Committee of the Faculty Hospital Olomouc, Czech Republic” approved the study and the use of primary human hepatocytes for research presented in the current paper., c) The consent from the next of kin of the donor was waived by “Ethical Committee of the Faculty Hospital Olomouc, Czech Republic”; (ii) long-term human hepatocytes in monolayer Batch HEP220770 (person), Batch HEP220774 (person) (purchased from Biopredic International, Rennes, France). Cells were cultured in serum-free medium. Cultures were maintained at 37°C and 5% CO2 in a humidified incubator.
(§2) Total RNA was isolated using TRI Reagent (Molecular Research Center, Cincinnati, OH, USA). cDNA was synthesized from 1000 ng of total RNA using M-MLV Reverse Transcriptase (Finnzymes, Espoo, Finland) at 42°C for 60 min in the presence of random hexamers (Takara, Shiga, Japan). qRT-PCR was carried out using LightCycler FastStart DNA MasterPLUS SYBR Green I (Roche Diagnostic Corporation, Prague, Czech Republic) on a Light Cycler 480 II apparatus (Roche Diagnostic Corporation). CYP1A1, CYP1A2, tyrosine aminotransferase (TAT) and GAPDH mRNAs were determined as described previously, [16]. Measurements were performed in triplicates. Gene expression was normalized to GAPDH as a housekeeping gene.

[3] = test system: CYP1A2 mRNA; assay: in vitro; conditions: human, 24 h
Excerpt: as §1, §2

[4] = test system: CYP1A1 mRNA; conditions: HepG2, TCDD 5 nM, 24 h, vs vehicle
[5] = test system: CYP1A1/1A2 catalytic activity (EROD); assay: EROD assay in primary human hepatocytes; assay type: cell-based; conditions: culture Hep220774, TCDD 5 nM, 24 h
Procedure: Cells were treated for 24 h with tested compounds.
The cells were treated for 24 h with (+)-KET, (−)-KET and commercial rac-KET (1 µM, 30 µM, 50 µM), and with TCDD (5 nM) and vehicle (DMSO; 0.1% V/V). […] In the cytotoxicity assay, we found all forms of KET highly toxic against human hepatocytes at the concentration 50 µM.

[6] = target: T1, aryl hydrocarbon receptor AhR (Homo sapiens, UniProt P35869); assay: AhR gene reporter assay in AZ-AHR cells, agonist mode; assay type: cell-based; conditions: 5 nM TCDD, four passages
T1 construct: endogenous in cells; host or cells: AZ-AHR (stably transfected reporter line derived from HepG2)
T1 sequence (P35869 11-848): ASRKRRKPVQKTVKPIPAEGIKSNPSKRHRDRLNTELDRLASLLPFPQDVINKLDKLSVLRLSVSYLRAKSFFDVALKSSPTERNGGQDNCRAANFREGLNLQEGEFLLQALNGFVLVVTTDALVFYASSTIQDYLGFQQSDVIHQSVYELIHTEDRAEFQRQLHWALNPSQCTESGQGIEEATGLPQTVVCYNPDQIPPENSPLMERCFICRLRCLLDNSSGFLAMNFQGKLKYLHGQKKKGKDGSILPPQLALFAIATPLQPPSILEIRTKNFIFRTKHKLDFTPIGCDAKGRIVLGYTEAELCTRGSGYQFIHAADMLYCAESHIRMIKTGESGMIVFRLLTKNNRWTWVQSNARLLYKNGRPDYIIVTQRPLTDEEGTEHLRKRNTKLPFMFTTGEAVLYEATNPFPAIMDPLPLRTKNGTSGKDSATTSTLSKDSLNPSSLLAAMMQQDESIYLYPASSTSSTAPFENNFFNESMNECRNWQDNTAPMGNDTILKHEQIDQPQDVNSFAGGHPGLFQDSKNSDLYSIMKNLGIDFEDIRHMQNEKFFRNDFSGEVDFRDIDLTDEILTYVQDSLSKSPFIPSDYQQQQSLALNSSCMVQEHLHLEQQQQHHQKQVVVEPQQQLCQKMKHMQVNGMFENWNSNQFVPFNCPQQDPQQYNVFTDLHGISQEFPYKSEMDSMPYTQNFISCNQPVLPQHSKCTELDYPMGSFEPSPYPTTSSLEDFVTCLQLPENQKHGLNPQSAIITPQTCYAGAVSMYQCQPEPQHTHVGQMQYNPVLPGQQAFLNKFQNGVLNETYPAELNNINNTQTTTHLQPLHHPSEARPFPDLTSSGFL
Excerpt: A stably transfected gene reporter cell line AZ-AHR, derived from human hepatoma HepG2 cells transfected with a construct containing several AhR binding sites upstream of a luciferase reporter gene, was used for assessment of AhR transcriptional activity. A stably transfected gene reporter cell line AZ-GR, derived from human cervix carcinoma HeLa cells transfected with a construct containing several GR response elements upstream of a luciferase reporter gene, was used for assessment of GR transcriptional activity. Cells were incubated for 24 h with tested compounds and/or vehicle (DMSO; 0.1% v/v), in the presence or absence of TCDD (5 nM; AZ-AHR cells) or DEX (100 nM; AZ-GR cells). After the treatments, cells were lysed and luciferase activity was measured. In parallel, cell viability was determined by conventional MTT test.
Gene reporter assays were performed in two different experimental layouts. In agonist mode, cells were treated with increasing concentrations of tested compounds, and the half-maximal effective concentrations (EC50) were calculated.

[7] = female, culture HH52, TCDD 5 nM
[8] = female, culture Hep220770, TCDD 5 nM

Clc1cc2c(cc1Cl)Oc1cc(Cl)c(Cl)cc1O2 [TCDD, 2,3,7,8-tetrachlorodibenzo-p-dioxin]
CYP1A1 protein induction (in words) [1]: drastic increase | fold induction [2, 7]: 53 | fold induction [2, 8]: 1840 | fold induction ([2]; male, culture HH54, TCDD 5 nM): 101 | fold induction [3, 7]: 79 | fold induction [3, 8]: 219 | fold induction ([3]; male, culture HH54, TCDD 5 nM): 30 | CYP1A1 mRNA induction [4]: approximately 500 fold | induction of EROD activity [5]: approximately 15 fold | average induction of AhR-dependent luciferase activity [6]: 435 fold
